Results on 33 compounds are retold here after ChEMBL document CHEMBL1201862, “PubChem BioAssay data set” (2004).

Broadly, the AC50 is the concentration giving half of the maximal activity seen.

Experiment [1] concerns the target Cytochrome P450 2D6 (Homo sapiens, UniProt P10635).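 Also: CYP2D6 member of a cytochrome P450 panel assay.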
The target in experiment [2] is Cytochrome P450 3A4 (Homo sapiens, UniProt P08684).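 Also: CYP3A4 tested as one member of a cytochrome P450 panel screen.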
For experiment [3], the target named is Cytochrome P450 2C9 (Homo sapiens, UniProt P11712).
Chain of Cytochrome P450 2C9 (P11712 whole entry): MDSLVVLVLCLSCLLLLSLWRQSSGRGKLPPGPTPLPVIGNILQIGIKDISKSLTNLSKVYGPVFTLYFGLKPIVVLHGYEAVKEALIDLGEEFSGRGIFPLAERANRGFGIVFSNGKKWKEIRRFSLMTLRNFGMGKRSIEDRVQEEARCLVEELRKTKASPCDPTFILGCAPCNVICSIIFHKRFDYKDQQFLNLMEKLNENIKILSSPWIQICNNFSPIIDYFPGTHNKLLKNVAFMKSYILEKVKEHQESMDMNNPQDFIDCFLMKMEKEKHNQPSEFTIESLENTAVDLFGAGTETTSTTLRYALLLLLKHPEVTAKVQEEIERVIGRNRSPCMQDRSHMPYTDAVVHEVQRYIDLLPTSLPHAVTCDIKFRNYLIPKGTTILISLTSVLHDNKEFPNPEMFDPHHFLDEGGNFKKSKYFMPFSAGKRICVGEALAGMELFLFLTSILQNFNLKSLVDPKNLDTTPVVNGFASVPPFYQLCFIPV
A short description of experiment [4]: fluconazole-exposed Candida albicans growth modulators – fluorescence, retest, confirmation (AID 2467). Format: functional, cell-based.
A short description of experiment [5]: NIH-3T3 fibroblast cytotoxicity, dose response, cytotoxicity control, cell-based, fluorescence, Alamar Blue, secondary assay (AID 2327).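 Also: NIH-3T3 mouse fibroblasts cultured with fluconazole at 8 µg/mL.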 Format: functional. (In general: The colour change of resazurin is a common sign of viable cells or microbes.)
Experiment [6] in a line: Luminescence Cell-Based Dose Retest to Confirm Inhibitors of Cancer Stem Cells. [Related pubchem assays (depositor defined):AID2717, AID2721]. Format: functional. The conditions noted are these: Homo sapiens.
Experiment [7] deals with T1, Corticotropin-releasing factor receptor 2/Corticotropin-releasing factor-binding protein (Homo sapiens, UniProt P24387+Q13324).
T1 sequence (Q13324 whole entry): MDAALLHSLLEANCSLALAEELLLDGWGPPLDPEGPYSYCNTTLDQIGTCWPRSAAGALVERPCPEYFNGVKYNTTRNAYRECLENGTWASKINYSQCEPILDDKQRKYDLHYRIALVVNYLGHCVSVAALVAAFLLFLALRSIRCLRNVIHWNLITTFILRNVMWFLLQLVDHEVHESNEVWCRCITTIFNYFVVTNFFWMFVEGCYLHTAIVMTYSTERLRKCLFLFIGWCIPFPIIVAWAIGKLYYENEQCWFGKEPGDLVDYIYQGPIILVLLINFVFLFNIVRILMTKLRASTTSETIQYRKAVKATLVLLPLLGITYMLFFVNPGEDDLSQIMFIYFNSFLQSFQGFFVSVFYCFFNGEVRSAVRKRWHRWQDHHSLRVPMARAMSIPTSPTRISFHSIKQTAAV
T1 sequence (P24387 whole entry): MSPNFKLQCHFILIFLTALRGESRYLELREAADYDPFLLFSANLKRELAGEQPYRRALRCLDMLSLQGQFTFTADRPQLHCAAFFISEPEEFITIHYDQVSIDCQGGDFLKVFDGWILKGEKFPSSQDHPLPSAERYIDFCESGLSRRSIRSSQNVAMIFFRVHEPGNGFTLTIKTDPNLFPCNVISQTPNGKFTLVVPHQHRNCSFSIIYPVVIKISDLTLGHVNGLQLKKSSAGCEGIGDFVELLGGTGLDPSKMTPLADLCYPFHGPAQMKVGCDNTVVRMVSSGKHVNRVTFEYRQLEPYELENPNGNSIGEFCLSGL
The experiment in a line: activators of CRF receptor 2 with binding protein – uHTS hits, confirmation (AID 602473). Format: functional. The conditions noted are these: read-out: EC50_Mean.

In experiment [8] the target is T1, Corticotropin-releasing factor receptor 2/Corticotropin-releasing factor-binding protein. Description: Dose Response confirmation of uHTS hits for small molecule antagonists of the CRF-binding protein and CRF-R2 receptor complex. Format: functional. The conditions noted are these: read-out: IC50_Mean.
Experiment [9] addresses T2, Cytochrome P450 1A2 (Homo sapiens, UniProt P05177).
T2 sequence (P05177 whole entry): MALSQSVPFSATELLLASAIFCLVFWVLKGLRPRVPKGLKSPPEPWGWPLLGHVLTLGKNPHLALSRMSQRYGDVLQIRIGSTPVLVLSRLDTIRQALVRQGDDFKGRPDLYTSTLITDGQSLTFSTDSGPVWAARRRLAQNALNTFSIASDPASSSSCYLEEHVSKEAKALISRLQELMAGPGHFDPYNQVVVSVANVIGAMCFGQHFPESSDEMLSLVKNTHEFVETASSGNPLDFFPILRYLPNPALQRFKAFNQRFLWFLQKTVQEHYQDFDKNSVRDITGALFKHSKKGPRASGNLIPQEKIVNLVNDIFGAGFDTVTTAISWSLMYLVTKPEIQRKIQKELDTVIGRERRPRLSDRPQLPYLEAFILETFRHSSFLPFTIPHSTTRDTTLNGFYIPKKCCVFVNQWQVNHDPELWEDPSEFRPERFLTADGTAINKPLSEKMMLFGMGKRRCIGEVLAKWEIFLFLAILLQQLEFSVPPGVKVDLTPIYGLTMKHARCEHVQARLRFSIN

Experiment [10] has as its system Streptococcus sp. 'group A'. Description: Streptococcus pyogenes SK(-)GAS viability under kanamycin – luminescence, BacTiterGlo, confirmation, counter-screen for streptokinase expression inhibitor project, dose response (AID 1900). Format: functional, organism-based. For orientation: Counterscreens check selectivity or assay interference.
A short description of experiment [11]: NIH3T3 cell viability loss – ATP luminescence, mouse fibroblasts, counter-screen, dose response (AID 2010).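 Also: cells exposed to compound for about 90 hours before reading.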 Format: functional, cell-based.
Experiment [12] deals with T3, Streptokinase A (Streptococcus pyogenes serotype M1, UniProt P10520).
T3 sequence (P10520 whole entry): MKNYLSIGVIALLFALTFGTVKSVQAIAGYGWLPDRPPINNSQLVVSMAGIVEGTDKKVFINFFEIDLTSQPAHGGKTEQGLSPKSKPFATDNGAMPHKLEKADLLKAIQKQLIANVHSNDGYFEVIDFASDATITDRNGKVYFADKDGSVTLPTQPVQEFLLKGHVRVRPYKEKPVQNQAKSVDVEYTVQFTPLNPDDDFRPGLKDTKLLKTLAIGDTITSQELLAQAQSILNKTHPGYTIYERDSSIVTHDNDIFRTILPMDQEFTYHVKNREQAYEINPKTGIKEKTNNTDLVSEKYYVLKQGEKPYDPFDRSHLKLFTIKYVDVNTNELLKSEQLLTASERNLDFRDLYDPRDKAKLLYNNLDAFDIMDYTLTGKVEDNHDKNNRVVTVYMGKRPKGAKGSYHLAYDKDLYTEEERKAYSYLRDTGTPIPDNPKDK
Description: viability-normalized secreted streptokinase activity reduction – plasminogen activation absorbance, OD405, dose response (AID 1914).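 Also: secreted streptokinase activity via plasminogen activation per viability signal from cell pellet.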 Format: functional, Streptococcus pyogenes M1 GAS.

Experiment [13] can be described thus: Trypanosoma cruzi growth suppression in host cells – NIH3T3 host cells, beta-gal luminescence, confirmation (AID 2044).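 Also: intracellular parasites grown in NIH/3T3 mouse fibroblasts as host cells; luminescent beta-galactosidase reporter signal from transgenic T. cruzi replicating inside host cells; inhibitors lower the luminescence signal.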 Format: functional, cell-based.
For experiment [14], the system named is Streptococcus. The experiment in a line: GAS UMAA2166 growth inhibition – luminescence, BacTiterGlo, counter-screen for streptokinase expression inhibitor project, dose response (AID 1915).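 Also: potency for reduction of bacterial viability or growth.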 Format: functional, organism-based.

The structures appear in SMILES notation. The source made the active and inactive calls. Bounds are passed on as bounds.

Chain of Cytochrome P450 2D6 (P10635 whole entry): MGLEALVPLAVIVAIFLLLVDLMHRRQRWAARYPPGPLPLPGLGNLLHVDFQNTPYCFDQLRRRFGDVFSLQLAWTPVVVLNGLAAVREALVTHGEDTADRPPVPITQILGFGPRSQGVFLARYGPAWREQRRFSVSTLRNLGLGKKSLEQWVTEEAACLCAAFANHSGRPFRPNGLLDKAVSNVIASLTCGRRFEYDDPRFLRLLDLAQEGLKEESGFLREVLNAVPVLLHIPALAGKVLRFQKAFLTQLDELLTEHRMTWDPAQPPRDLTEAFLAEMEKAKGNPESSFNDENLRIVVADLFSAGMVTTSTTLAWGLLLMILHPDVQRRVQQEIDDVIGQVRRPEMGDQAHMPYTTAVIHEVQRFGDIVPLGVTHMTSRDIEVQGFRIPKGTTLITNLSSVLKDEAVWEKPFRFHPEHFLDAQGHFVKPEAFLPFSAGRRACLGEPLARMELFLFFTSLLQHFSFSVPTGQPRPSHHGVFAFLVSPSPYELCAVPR
Chain of Cytochrome P450 3A4 (P08684 whole entry): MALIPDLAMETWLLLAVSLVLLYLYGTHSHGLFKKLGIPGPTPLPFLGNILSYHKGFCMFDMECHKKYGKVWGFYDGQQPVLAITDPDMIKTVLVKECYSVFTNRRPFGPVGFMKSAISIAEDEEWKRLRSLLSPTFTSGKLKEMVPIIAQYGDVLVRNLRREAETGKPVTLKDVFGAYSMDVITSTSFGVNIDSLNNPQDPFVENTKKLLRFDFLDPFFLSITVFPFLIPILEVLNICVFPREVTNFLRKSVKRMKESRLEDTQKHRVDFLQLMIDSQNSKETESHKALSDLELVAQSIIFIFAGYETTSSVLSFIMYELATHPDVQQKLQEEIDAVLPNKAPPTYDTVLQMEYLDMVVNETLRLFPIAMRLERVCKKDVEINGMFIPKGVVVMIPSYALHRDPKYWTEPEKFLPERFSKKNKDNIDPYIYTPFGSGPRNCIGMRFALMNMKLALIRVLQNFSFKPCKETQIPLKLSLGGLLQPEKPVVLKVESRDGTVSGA

For `O=C1C(Cl)=C(Sc2nnc3c4ccccc4c4ccccc4c3n2)C(=O)c2ccccc21`, the AC50 in experiment [1] was 3.98 µM (inconclusive); in [2] it was 5.01 µM (inconclusive); in experiment [3], 3.98 µM (inconclusive).

With `COc1ccccc1-c1nccc(NCc2cccnc2)n1`, the AC50 in experiment [1] was 20 µM (inconclusive).

For the compound `CCOC(=O)c1ccc(NC(=O)c2ccc(CO)c(C(=O)NC3CCN(C(=O)OCC)CC3)c2)cc1`, the EC50 is > 38 µM (not active) in [4] and > 160 µM (inactive) in experiment [5].

As to `CCOC(=O)C1CCN(CCC(=O)Nc2ccc(F)cc2)CC1`, the EC50 was 5.18 µM (active) in experiment [4] and > 150 µM (inactive) in [5].

Regarding `COc1ccc(C(=O)NCC2(c3ccccc3)CCCC2)c(OC)c1`, the AC50 in [6] was 1.22 µM (active).

For `Cc1cc(C)n2nc(-c3sccc3-n3cccc3)cc2n1`, the half-maximal activity concentration (AC50) is 35.5 µM (inconclusive) in [1] and 3.55 µM (inconclusive) in experiment [2].

For the compound `Cc1ccc(C(=O)NC(=C(Cl)Cl)S(=O)(=O)c2ccccc2)cc1`, the AC50 in experiment [6] was 3.29 µM (active).

As for `CCOC(=O)C1CCN(c2cc3c(cc2NC(=O)c2cc(OC)ccc2Br)n(C)c(=O)n3C)CC1`, the EC50 in experiment [7] was > 53 µM (inactive). The IC50 in [8] was > 47.1 µM (inactive).

With `Cc1c(/C=C2\SC(=O)N(CC(=O)Nc3ccc4c(c3)OCO4)C2=O)c2ccccc2n1C`, the AC50 is 3.16 µM (inconclusive) in experiment [9], 2.82 µM (inconclusive) in [1] and 0.2 µM (inconclusive) in experiment [2].

For the compound `COc1ccccc1N1CCN(Cc2cc(=O)n3ccsc3n2)CC1`, the AC50 in experiment [1] is 22.4 µM (inconclusive).

In the case of `CCCCCCCCCC(=O)NNC(=O)c1c(O)c2ccccc2n(CC)c1=O`, the EC50 in experiment [4] was > 38 µM (not active); in experiment [5] it was > 160 µM (inactive).

Take `COC(=O)N1CCC2(CCCN(Cc3nccs3)C2)CC1`: the AC50 in experiment [1] is 12.6 µM (inconclusive); in experiment [2], 15.8 µM (inconclusive).

Take `COc1cccc(OC)c1C(=O)NC(=S)N1CCN(c2ccc(C(F)(F)F)cc2[N+](=O)[O-])CC1`: in experiment [1], the concentration at half-maximal activity (AC50) was 20 µM (inconclusive).

Regarding `Cc1nc2ccc(NC(=O)COc3ccccc3)cc2s1`, the EC50 was > 38 µM (not active) in experiment [4] and > 150 µM (inactive) in [5].

For the compound `CCNc1nc(NCC)n2c(SCc3ccc(F)cc3)nnc2n1`, the EC50 in [7] was > 53 µM (inactive). The IC50 in [8] was > 47.1 µM (inactive).

Take `COc1cc(OC)cc(C(=O)NNC(=O)Cc2ccc(OC)c(S(=O)(=O)N3CCOCC3)c2)c1`: the EC50 in experiment [4] was > 38 µM (not active); in experiment [5], > 150 µM (inconclusive).

On to `COc1cccc(C(=O)/C=C/c2ccc(N3CCCCC3)c([N+](=O)[O-])c2)c1`, for which, in [6], the AC50 is 7.86 µM (active).

Take `O=S(=O)(Nc1ccc2c(c1)CCC2)c1cccs1`: in experiment [7], the EC50 was > 53 µM (inactive). Moreover, the IC50 in [8] is > 47.1 µM (inactive).

Regarding `COc1ccc(S(=O)(=O)Nc2nc3ccccc3nc2NCC2CCCO2)cc1` (centres undefined), the EC50 in experiment [7] was > 53 µM (inactive). Moreover, the IC50 in experiment [8] was > 47.1 µM (inactive).

In the case of `COC(=O)c1ccc(CSc2nc3cc(Cl)ccc3s2)o1`, the half-maximal activity concentration (AC50) is 20 µM (inconclusive) in [1] and 25.1 µM (inconclusive) in experiment [2].

Consider `CS(=O)(=O)Nc1ccc(Nc2c3ccccc3nc3ccccc23)cc1`, for which the concentration at half-maximal activity (AC50) was 3.16 µM (inconclusive) in [1] and 6.31 µM (inconclusive) in experiment [3].

Consider `c1ccc(N(c2ccccc2)c2nc(N3CCCC3)nc(-n3ccnc3)n2)cc1`, for which the EC50 is 5.55 µM (active) in experiment [10]; > 60 µM (not active) in experiment [11]; > 150 µM (not active) in experiment [12]; 1.84 µM (active) in [13]; 5.49 µM (active) in [14]. Also, in experiment [6], the AC50 was 5.16 µM (active).

Consider `O=C(O)CN1CCN(Cc2ccccc2)C1=O`, for which the results for the AC50 in experiment [1] and in experiment [3] were 15.8 µM (inconclusive) and 11.2 µM (inconclusive), respectively.

With `CCCCn1c(CN2CCN(C(=O)OCC)CC2)nc2c1c(=O)n(C)c(=O)n2C`, the EC50 was > 38 µM (not active) in experiment [4] and > 150 µM (inactive) in [5].

As for `COC(=O)c1sccc1NS(=O)(=O)c1ccccc1`, the EC50 in experiment [7] was > 53 µM (inactive). In [8], the IC50 is > 47.1 µM (inactive).

For `C=C1C(C(=O)Nc2ccccc2)C1C(=O)Nc1ccccc1` (centres undefined), in [7], the EC50 is > 53 µM (inactive). Moreover, the IC50 in [8] is > 47.1 µM (inactive).

Take `COc1ccc(/C=N/NC(=S)Nc2ccccc2[N+](=O)[O-])cc1O`: in experiment [6], the half-maximal activity concentration (AC50) was 4.87 µM (active).

Regarding `CCOc1ccc(/C=N/NC(=O)C(C)N(c2ccc(OC)cc2)S(C)(=O)=O)cc1OCC` (centres undefined), the EC50 in experiment [7] was > 53 µM (inactive). Further, the IC50 in experiment [8] is > 47.1 µM (inactive).

On to `CCOc1ccccc1NC(=O)COC(=O)C1COc2ccccc2O1` (centres undefined), for which the EC50 in experiment [7] is > 53 µM (inactive). Further, in experiment [8], the IC50 is > 47.1 µM (inactive).

For `Clc1ccc(Sc2ccc(/C=N/n3cnnc3)o2)cc1`, the AC50 in experiment [1] was 15.8 µM (inconclusive).

For `c1cc(-c2sc(-c3ccncc3)c(-c3ccncc3)c2-c2ccncc2)ccn1`, the AC50 in experiment [9] and in experiment [1] was 3.16 µM (inconclusive) in each case.

Take `O=C1NC(Cc2c[nH]c3ccccc23)C(=O)N1Cc1cccc2ccccc12` (centres undefined): the EC50 in experiment [7] was > 53 µM (inactive). Moreover, the IC50 in experiment [8] was > 47.1 µM (inactive).

`CC[C@H](NC(C)C)[C@H](O)c1ccc(O)c2[nH]c(=O)ccc12` [PROCATEROL]: the half-maximal activity concentration (AC50) is 39.8 µM (inconclusive) in experiment [9] and 31.6 µM (inconclusive) in experiment [1].
